This note sets out measurements from patent US6653508B2, “3-amino-2-benzyl-1-phenylpropane derivatives” (Gruenenthal GmbH, priority 1999, dated 2003).

Counter-ions that a name gives are not always drawn.

The first data set has as its system phenylquinone-induced writhing reactions in mice. As to the kind of experiment: Phenylquinone-induced writhing test in mice. In kind it is in vivo. To be noted: Mus musculus, iv; male mice, 10 mg/kg i.v.; phenylquinone i.p. 10 minutes after test substance; writhing counted 5-20 minutes after phenylquinone. Here is the method: The analgesic effectiveness of the compounds according to the invention is investigated in mice by the phenylquinone-induced writhing test as modified by I. C. Hendershot, J. Forsaith in J. Pharmacol. Exp. Ther. 125, 237-240 (1959). For this purpose male mice weighing 25-30 g are used. Groups in each case of 10 animals received per substance a dose, 10 minutes after intravenous administration of the test substances, 0.3 ml/mouse of a 0.02% aqueous solution of phenylquinone (phenylbenzoquinone, Sigma, Deisenhofen; solution prepared under the addition of 5% ethanol and storage in a water bath at 45° C.) applied intraperitoneally. The animals were then placed individually in observation cages. The number of pain-induced stretching movements (so-called writhing reactions=straightening of the body with stretching of the rear extremities) was counted with a push-button counter 5-20 minutes after administration of the phenyl quinone. Animals that had only received physiological saline solution with the phenylquinone served as controls.
All substances were tested in a standard dose of 10 mg/kg. The percentage inhibition (% inhibition) of the writhing reactions achieved by a substance was calculated according to the following formula: [formula]
For `CN(C)CC(Cc1ccccc1)C(=O)c1cccc(OCc2ccccc2)c1` (racemic) [Example 2, (2RS)-1-(3-benzyloxyphenyl)-2-dimethylaminomethyl-3-phenylpropan-1-one hydrochloride], the inhibition in vivo (as a rule, the relative decrease from the control value, in per cent) at 10 mg/kg worked out at 85%.

As for `CN(C)CC(Cc1ccccc1)C(=O)c1cccc(O)c1.Cl` (racemic) [Example 6, (2RS)-2-benzyl-3-dimethylamino-1-(3-hydroxyphenyl)-propan-1-one hydrochloride], testing at 10 mg/kg gave an inhibition in vivo of 84%.

With `COc1cc(OC)cc(C(=O)C(Cc2ccccc2)CN(C)C)c1` (racemic) [Example 7, (2RS)-2-benzyl-1-(3,5-dimethoxyphenyl)-3-dimethylamino-propan-1-one hydrochloride], at 10 mg/kg the inhibition in vivo was 75%.

`COc1ccc(OC)c(C(=O)C(Cc2ccccc2)CN(C)C)c1.Cl` (racemic) [Example 8, (2RS)-2-benzyl-1-(2,5-dimethoxyphenyl)-3-dimethylaminopropan-1-one hydrochloride] gave an inhibition in vivo at 10 mg/kg of 92%.

On to `CN(C)CC(Cc1ccccc1)C(=O)c1cc(Cl)ccc1Cl` (racemic) [Example 13, (2RS)-2-benzyl-1-(2,5-dichlorophenyl)-3-dimethylaminopropan-1-one hydrochloride], for which the inhibition in vivo at 10 mg/kg worked out at 70%.

Compound `CSc1cccc(C(=O)C(Cc2ccccc2)CN(C)C)c1.Cl` (racemic) [Example 22, (2RS)-2-benzyl-3-dimethylamino-1-(3-methylsulfanylphenyl)-propan-1-one hydrochloride] gave an inhibition in vivo at 10 mg/kg of 62%.

`CN(C)CC(Cc1ccccc1)C(=O)c1cccc(C#N)c1.Cl` (racemic) [Example 26, (2RS)-3-(2-benzyl-3-dimethylaminopropionyl)-benzonitrile hydrochloride] had an inhibition in vivo at 10 mg/kg of 79%.

Regarding `CN(C)CC(Cc1ccccc1)C(=O)c1ccc2cc(O)ccc2c1.Cl` (racemic) [Example 29, (2RS)-2-benzyl-3-dimethylamino-1-(6-hydroxynaphthalen-2-yl)-propan-1-one hydrochloride], the inhibition in vivo at 10 mg/kg turned out to be 82%.

`C/C=C(\c1cccc(OC)c1)C(Cc1ccccc1)CN(C)C` (racemic) [Example 65, Z-(2RS)-[2-benzyl-3-(3-methoxyphenyl)-pent-3-enyl]-dimethyl-amine hydrochloride] came in with an inhibition in vivo at 10 mg/kg of 100%.

Compound `COc1ccc(C(=O)C(Cc2ccccc2)CN(C)C)c(C)c1C` (racemic) [Example 71, (2RS)-2-benzyl-3-dimethylamino-1-(4-methoxy-2,3-dimethylphenyl)-propan-1-one hydrochloride] returned an inhibition in vivo at 10 mg/kg of 94%.

`COc1cccc(C(=O)C(Cc2cccc(Cl)c2)CN(C)C)c1` (racemic) [Example 72, (2RS)-2-(3-chlorobenzyl)-3-dimethylamino-1-(3-methoxyphenyl)-propan-1-one hydrochloride]: the inhibition in vivo at 10 mg/kg is 85%.

`COc1cccc(C(=O)[C@@H](Cc2ccccc2)CN(C)C)c1` [Example 11, (−)-(S)-2-benzyl-3-dimethylamino-1-(3-methoxyphenyl)-propan-1-one hydrochloride]: at 10 mg/kg the inhibition in vivo was 90%.

System in a further data set: not given
Test: not given
Details: not given
Regarding `CN(C)CC(Cc1ccccc1)C(=O)c1cccc(Cl)c1Cl.Cl` (racemic), the melting point (commonly the temperature of the solid-liquid transition) stood at 114 °C.

Consider `COc1ccc(C(=O)C(Cc2ccccc2)CN(C)C)c(OC)c1OC.Cl` (racemic), for which the melting point was found to be 141 °C.

Take `COc1cc(C(=O)C(Cc2ccccc2)CN(C)C)cc(OC)c1OC.Cl` (racemic): the melting point was 125 °C.

The compound `CN(C)CC(Cc1ccccc1)C(=O)c1cc(O)ccc1O.Cl` (racemic) showed a melting point of 177 °C.

Turning to `COc1ccccc1C(=O)C(Cc1ccccc1)CN(C)C.Cl` (racemic), the melting point amounted to 159 °C.

The compound `CN(C)CC(Cc1ccccc1)C(=O)c1ccc2ccccc2c1.Cl` (racemic) showed a melting point of 135.3 °C.

`CN(C)CC(Cc1ccccc1)C(=O)c1ccc2ccc3ccccc3c2c1.Cl` (racemic): the melting point was 138.7 °C.

Regarding `CN(C)CC(Cc1ccccc1)C(=O)c1ccccc1O.Cl` (racemic), the melting point came to 123 °C.

In turn, `COc1ccc2cc(C(=O)C(Cc3ccccc3)CN(C)C)ccc2c1.Cl` (racemic) showed a melting point of 88 to 95 °C.

In turn, `CN(C)CC(Cc1ccccc1)C(=O)c1ccccc1-c1ccccc1.Cl` (racemic) displayed a melting point of 134 to 134.8 °C.

In the case of `CN(C)CC(Cc1ccccc1)C(=O)c1ccc(F)cc1Cl.Cl` (racemic), the melting point was 150.3 °C.

Consider `COc1cccc(C(=O)C(Cc2ccccc2F)CN(C)C)c1.Cl` (racemic), for which the melting point stood at 111 °C.

As for `COc1cccc(C(=O)C(Cc2cccc(F)c2)CN(C)C)c1.Cl` (racemic), the melting point was 141 °C.

Compound `COc1cccc(C(=O)C(Cc2ccc(F)cc2)CN(C)C)c1.Cl` (racemic) displayed a melting point of 138 °C.

Take `COc1ccc(CC(CN(C)C)C(=O)c2cccc(OC)c2)cc1.Cl` (racemic): the melting point was 134 °C.

On to `COc1cccc(C(=O)[C@@H](CN(C)C)[C@H](c2ccccc2)c2cccc(OC)c2)c1.Cl` (racemic), for which the melting point was found to be 139.1 °C.

Regarding `CC[C@@H](c1ccccc1)[C@H](CN(C)C)C(=O)c1cccc(OC)c1.Cl` (racemic), the melting point is 89.5 °C.

With `CN(C)CC(Cc1ccccc1)C(=O)c1cccc(C(F)(F)F)c1.Cl` (racemic), the melting point was determined as 104 °C.

On to `CNCC(Cc1cccc(C)c1)C(=O)c1cccc(OC)c1.Cl` (racemic), for which the melting point is 118 to 120 °C.

In turn, `COc1cccc(C(=O)C(Cc2ccc(F)c(F)c2)CN(C)C)c1.Cl` (racemic) displayed a melting point of 128 °C.

As to `CN(C)CC(Cc1ccccc1)C(=O)c1cccc(O)c1.Cl` (racemic) [Example 6, (2RS)-2-benzyl-3-dimethylamino-1-(3-hydroxyphenyl)-propan-1-one hydrochloride], the melting point stood at 169 °C.

The compound `COc1ccc(OC)c(C(=O)C(Cc2ccccc2)CN(C)C)c1.Cl` (racemic) [Example 8, (2RS)-2-benzyl-1-(2,5-dimethoxyphenyl)-3-dimethylaminopropan-1-one hydrochloride] yielded a melting point of 149 °C.

As for `CSc1cccc(C(=O)C(Cc2ccccc2)CN(C)C)c1.Cl` (racemic) [Example 22, (2RS)-2-benzyl-3-dimethylamino-1-(3-methylsulfanylphenyl)-propan-1-one hydrochloride], the melting point was found to be 118 °C.

The compound `CN(C)CC(Cc1ccccc1)C(=O)c1cccc(C#N)c1.Cl` (racemic) [Example 26, (2RS)-3-(2-benzyl-3-dimethylaminopropionyl)-benzonitrile hydrochloride] yielded a melting point of 154 °C.

On to `CN(C)CC(Cc1ccccc1)C(=O)c1ccc2cc(O)ccc2c1.Cl` (racemic) [Example 29, (2RS)-2-benzyl-3-dimethylamino-1-(6-hydroxynaphthalen-2-yl)-propan-1-one hydrochloride], for which the melting point lay in the range of 180 to 182 °C.
